According to US9409865B2, “Modulators of methyl modifying enzymes, compositions and uses thereof” (Constellation Pharmaceuticals, Inc., priority 2011, dated 2016):

How the values were obtained:
EZH2 = EZH2 (Homo sapiens, UniProt Q15910); test: EZH2 assay (rPRC2, 3H SAM methyl transfer to biotinylated oligonucleosomes); format: biochemical; conditions: rPRC2, 2 nM EZH2, biotinylated oligonucleosomes, 0.2 μM 3H SAM; top concentration 80 μM
Procedure: (§1) Assays were carried out by mixing rPRC2 together with biotinylated oligonucleosome substrates in the presence of the radio-labeled enzyme co-factor, S-adenosyl-L-methionine (^3H SAM) (Perkin Elmer) and monitoring the enzymatically mediated transfer of tritiated methyl groups from ^3H SAM to histone lysine residues. The amount of resulting tritiated methylhistone product was measured by first capturing the biotinylated oligonucleosomes in streptavidin (SAV) coated FlashPlates (Perkin Elmer), followed by a wash step to remove un-reacted ^3H SAM, and then counting on a TopCount NXT 384 well plate scintillation counter (Perkin Elmer). The final assay conditions for EZH2 were as follows: 50 mM Tris Buffer pH 8.5, 1 mM DTT, 69 μM Brij-35 detergent, 5.0 mM MgCl2, 0.1 mg/mL BSA, 0.2 μM ^3H SAM, 0.2 μM biotinylated oligonucleosomes, 3.6 μM H3K27me3 peptide and 2 nM EZH2.
(§2) Ten point dose response curves were generated by dispensing varying amounts of the 10 mM compound solution in 10 wells of the 384 well plate (Echo; Labcyte), pure DMSO was then used to backfill the wells to insure all wells have the same amount of DMSO. A 12.5 μL volume of the HMT enzyme, H3K27me3 peptide and oligonucleosome substrate in assay buffer was added to each well of the assay plate using a Multidrop Combi (ThermoFisher). Compounds were pre-incubated with the enzyme for 20 min, followed by initiation of the methyltransferase reaction by addition of 12.5 μL of 3H SAM in assay buffer (final volume=25 μL). The final concentrations of compounds ranged from a top default concentration of 80 μM down to 0.16 μM in ten 2-fold dilution steps. Reactions were carried out for 60 minutes and quenched with 20 μL per well of 1.96 mM SAH, 50 mM Tris PH 8.5, 200 mM EDTA. Stopped reactions were transferred to SAV coated Flashplates (Perkin Elmer), incubated for 120 min, washed with a plate washer, and then read on the TopCount NXT (1.0 min/well) to measure the amount of methylhistone product formed during the reaction.

Y641N EZH2 = Y641N EZH2 (Homo sapiens, UniProt Q15910, Y641N); test: Y641N EZH2 assay (as the EZH2 assay, with H3K27Me2 oligonucleosomes as substrate); format: biochemical; conditions: Y641N EZH2 mutant, reconstituted H3K27Me2 oligonucleosomes as substrate; top concentration 80 μM
Procedure: as §1, §2
Assay for Y641N EZH2 was performed as above using reconstituted H3K27Me2 oligonucleosomes as substrate.

Chain of Y641N EZH2 (Q15910 whole entry Y641N): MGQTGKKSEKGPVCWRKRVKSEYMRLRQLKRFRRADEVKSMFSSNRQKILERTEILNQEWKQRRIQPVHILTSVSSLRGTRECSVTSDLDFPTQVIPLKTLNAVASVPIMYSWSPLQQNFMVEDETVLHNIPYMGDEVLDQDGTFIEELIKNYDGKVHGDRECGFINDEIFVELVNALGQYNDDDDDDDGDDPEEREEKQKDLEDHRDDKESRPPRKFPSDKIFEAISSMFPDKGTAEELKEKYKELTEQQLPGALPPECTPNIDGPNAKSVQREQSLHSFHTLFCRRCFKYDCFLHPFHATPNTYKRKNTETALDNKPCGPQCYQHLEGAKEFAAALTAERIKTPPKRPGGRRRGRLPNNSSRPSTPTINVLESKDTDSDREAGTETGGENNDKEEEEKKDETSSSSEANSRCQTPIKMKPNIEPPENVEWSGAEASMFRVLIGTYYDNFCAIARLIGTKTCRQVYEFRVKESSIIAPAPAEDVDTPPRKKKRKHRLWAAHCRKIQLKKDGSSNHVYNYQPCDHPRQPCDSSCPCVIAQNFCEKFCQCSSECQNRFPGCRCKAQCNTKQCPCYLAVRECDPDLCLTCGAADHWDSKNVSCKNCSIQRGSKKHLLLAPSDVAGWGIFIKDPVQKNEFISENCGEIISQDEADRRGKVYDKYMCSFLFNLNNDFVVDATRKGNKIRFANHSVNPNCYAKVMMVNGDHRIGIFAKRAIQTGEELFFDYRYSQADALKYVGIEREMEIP
Chain of Y641N EZH2 (O75530 whole entry partner): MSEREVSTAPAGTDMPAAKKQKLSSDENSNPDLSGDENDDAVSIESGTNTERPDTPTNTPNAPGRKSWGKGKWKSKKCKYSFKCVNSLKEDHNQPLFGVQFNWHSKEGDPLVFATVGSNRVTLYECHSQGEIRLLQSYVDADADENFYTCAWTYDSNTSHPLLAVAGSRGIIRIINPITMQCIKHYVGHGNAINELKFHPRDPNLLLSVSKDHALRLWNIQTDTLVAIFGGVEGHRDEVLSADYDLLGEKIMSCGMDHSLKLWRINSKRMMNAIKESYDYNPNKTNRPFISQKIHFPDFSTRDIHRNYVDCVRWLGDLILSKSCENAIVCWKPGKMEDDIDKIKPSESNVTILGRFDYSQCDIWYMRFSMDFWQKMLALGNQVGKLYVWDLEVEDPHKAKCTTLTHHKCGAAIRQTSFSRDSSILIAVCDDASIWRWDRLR
Chain of Y641N EZH2 (Q15022 whole entry partner): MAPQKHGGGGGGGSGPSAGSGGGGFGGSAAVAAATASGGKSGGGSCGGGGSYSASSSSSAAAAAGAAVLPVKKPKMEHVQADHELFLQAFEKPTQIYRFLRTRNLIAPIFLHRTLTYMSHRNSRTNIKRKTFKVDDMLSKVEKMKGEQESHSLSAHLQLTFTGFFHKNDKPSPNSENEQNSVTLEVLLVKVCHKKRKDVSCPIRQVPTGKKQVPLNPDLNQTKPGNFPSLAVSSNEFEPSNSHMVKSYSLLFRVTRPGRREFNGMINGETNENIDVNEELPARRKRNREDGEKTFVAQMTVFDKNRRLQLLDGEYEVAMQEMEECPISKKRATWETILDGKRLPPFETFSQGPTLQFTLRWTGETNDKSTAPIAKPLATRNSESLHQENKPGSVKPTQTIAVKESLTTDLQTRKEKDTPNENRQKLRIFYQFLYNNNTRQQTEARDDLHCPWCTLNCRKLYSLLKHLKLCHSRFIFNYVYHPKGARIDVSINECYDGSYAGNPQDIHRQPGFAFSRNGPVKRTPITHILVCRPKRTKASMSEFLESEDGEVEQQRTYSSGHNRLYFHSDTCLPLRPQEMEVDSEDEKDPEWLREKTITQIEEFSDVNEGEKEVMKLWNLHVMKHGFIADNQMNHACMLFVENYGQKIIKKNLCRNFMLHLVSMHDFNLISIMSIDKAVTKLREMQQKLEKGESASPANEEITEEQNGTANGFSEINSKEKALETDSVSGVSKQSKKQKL
Chain of EZH2 (Q15910 whole entry): as the sequence (Q15910 whole entry Y641N) above, with N641Y counted along it
Chain of EZH2 (O75530 whole entry partner): as the sequence (O75530 whole entry partner) above
Chain of EZH2 (Q15022 whole entry partner): as the sequence (Q15022 whole entry partner) above

Row | IC50 (EZH2) [µM] | IC50 (Y641N EZH2) [µM] | Compound
1 | 1 to 10 | 1 to 10 | Cc1cc(C)c(CNC(=O)c2ccc(C(C)C)cc2C)c(=O)[nH]1 [Compound I-1, N-((2-hydroxy-4,6-dimethylpyridin-3-yl)methyl)-4-isopropyl-2-methylbenzamide]
2 | < 1 | 1 to 10 | Cc1cc(C)c(CNC(=O)c2ccc(C(C)C)cc2Cl)c(=O)[nH]1 [Compound I-2, 2-chloro-N-((2-hydroxy-4,6-dimethylpyridin-3-yl)methyl)-4-isopropyl benzamide]
3 | 1 to 10 | > 10 | COC(C)(C)c1ccc(C(=O)NCc2c(C)cc(C)[nH]c2=O)cc1 [Compound I-3, N-((2-hydroxy-4,6-dimethylpyridin-3-yl)methyl)-4-(2-methoxypropan-2-yl)benzamide]
4 | < 1 | 1 to 10 | COC(C)c1ccc(C(=O)NCc2c(C)cc(C)[nH]c2=O)cc1 (stereo not drawn) [Compound I-4, N-((2-hydroxy-4,6-dimethylpyridin-3-yl)methyl)-4-(1-methoxyethyl)benzamide]
5 | < 1 | 1 to 10 | Cc1cc(C)c(CNC(=O)c2ccc(C(C)OC(C)C)cc2)c(=O)[nH]1 (stereo not drawn) [Compound I-5, N-((2-hydroxy-4,6-dimethylpyridin-3-yl)methyl)-4-(1-isopropoxyethyl)benzamide]
6 | > 10 | > 10 | Cc1cc(C)c(CNC(=O)c2ccc(COC(C)C)cc2)c(=O)[nH]1 [Compound I-6]
7 | < 1 | 1 to 10 | CCOC(C)c1ccc(C(=O)NCc2c(C)cc(C)[nH]c2=O)cc1 (stereo not drawn) [Compound I-7, 4-(1-ethoxyethyl)-N-((2-hydroxy-4,6-dimethylpyridin-3-yl)methyl)benzamide]
8 | < 1 | 1 to 10 | Cc1cc(C)c(CNC(=O)c2ccc(C(C)C(C)C)cc2)c(=O)[nH]1 (stereo not drawn) [Compound I-9, N-((2-hydroxy-4,6-dimethylpyridin-3-yl)methyl)-4-(3-methylbutan-2-yl)benzamide]
9 | < 1 | 1 to 10 | CCCC(C)c1ccc(C(=O)NCc2c(C)cc(C)[nH]c2=O)cc1 (stereo not drawn) [Compound I-10, N-((2-hydroxy-4,6-dimethylpyridin-3-yl)methyl)-4-(pentan-2-yl)benzamide]
10 | 1 to 10 | > 80 | Cc1cc(C)c(CNC(=O)c2ccc(C(C)C)c(Oc3ccccc3)c2)c(=O)[nH]1 [Compound I-11, N-((2-hydroxy-4,6-dimethylpyridin-3-yl)methyl)-4-isopropyl-3-phenoxy benzamide]
11 | 1 to 10 | > 80 | Cc1cc(C)c(CNC(=O)c2ccc3c(c2)OCC3C)c(=O)[nH]1 (stereo not drawn) [Compound I-12]
12 | 1 to 10 | > 80 | Cc1cc(C)c(CNC(=O)c2ccn(C(C)C)c(=O)c2)c(=O)[nH]1 [Compound I-14, N-((2-hydroxy-4,6-dimethylpyridin-3-yl)methyl)-1-isopropyl-2-oxo-1,2-dihydropyridine-4-carboxamide]
13 | > 10 | > 80 | Cc1cc(C)c(CNC(=O)c2ccc(C(C)(C)O)cc2)c(=O)[nH]1 [Compound I-20, N-((2-hydroxy-4,6-dimethylpyridin-3-yl)methyl)-4-(2-hydroxypropan-2-yl)benzamide]
14 | > 80 | > 80 | CC(=O)NC(C)c1ccc(C(=O)NCc2c(C)cc(C)[nH]c2=O)cc1 (stereo not drawn) [Compound I-29, 4-(1-acetamidoethyl)-N-((2-hydroxy-4,6-dimethylpyridin-3-yl)methyl)benzamide]

Row | Compound | IC50 (EZH2) [µM] | IC50 (Y641N EZH2) [µM]
15 | Cc1cc(C)c(CNC(=O)c2ccc(C(C)OCC(C)C)cc2)c(=O)[nH]1 (stereo not drawn) [Compound I-8, N-((2-hydroxy-4,6-dimethylpyridin-3-yl)methyl)-4-(1-isobutoxyethyl)benzamide] | < 1 | 1 to 10
